For this assay, the target named is T1, recombinant human GR (Homo sapiens, UniProt P04150).
T1 construct: purchased Panvera/Invitrogen P2812 (kit P2893)
T1 sequence (P04150 1-777): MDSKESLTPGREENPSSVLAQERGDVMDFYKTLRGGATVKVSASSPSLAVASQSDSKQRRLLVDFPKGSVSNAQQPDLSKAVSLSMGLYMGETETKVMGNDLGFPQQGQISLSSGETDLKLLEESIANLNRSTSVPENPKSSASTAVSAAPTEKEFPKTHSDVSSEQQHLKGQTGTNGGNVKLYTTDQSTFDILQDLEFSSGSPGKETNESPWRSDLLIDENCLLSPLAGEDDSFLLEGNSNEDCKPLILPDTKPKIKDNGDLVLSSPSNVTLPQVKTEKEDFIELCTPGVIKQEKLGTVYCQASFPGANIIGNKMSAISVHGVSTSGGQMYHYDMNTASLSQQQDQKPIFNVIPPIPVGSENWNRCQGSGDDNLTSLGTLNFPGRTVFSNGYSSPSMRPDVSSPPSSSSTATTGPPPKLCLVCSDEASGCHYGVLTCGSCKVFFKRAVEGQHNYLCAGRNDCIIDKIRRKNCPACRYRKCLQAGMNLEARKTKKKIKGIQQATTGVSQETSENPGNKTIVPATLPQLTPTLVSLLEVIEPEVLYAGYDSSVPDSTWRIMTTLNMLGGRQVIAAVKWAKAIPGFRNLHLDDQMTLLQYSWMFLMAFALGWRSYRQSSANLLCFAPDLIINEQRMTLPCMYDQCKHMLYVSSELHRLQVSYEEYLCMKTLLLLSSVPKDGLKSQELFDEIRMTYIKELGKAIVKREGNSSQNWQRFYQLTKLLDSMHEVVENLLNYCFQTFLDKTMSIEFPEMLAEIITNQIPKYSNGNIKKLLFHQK
Briefly: Human Glucocorticoid Receptor (GR) Assay, fluorescence polarization. Format: binding. Particulars: GS Red tracer, incubated 2 h at r.t., XLfit model 205, read-out: GRhuFL_FP_v2 Mean IC50. In a few lines:
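After 2 h dark incubation at r.t., polarization reported displacement of the GS Red tracer from recombinant GR, in buffer with phosphate, molybdate, EDTA, DTT and Stabilizing Peptide. Controls: dexamethasone (100%) and DMSO (0%).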
(Fluorescence polarisation rises when a labelled molecule tumbles more slowly, as on binding a larger partner.)

For the compound `COc1cccc([C@@H](Oc2ccc3c(cnn3-c3ccc(F)cc3)c2)[C@H](C)NC(=O)C(=O)NC(C)(C)C)c1` [Example 82, N-[(1R,2S)-1-[1-(4-Fluorophenyl)indazol-5-yl]oxy-1-(3-methoxyphenyl)propan-2-yl]-N′-tert-butyl-oxamide], the IC50 (as a rule, the concentration needed to halve the response being measured) was determined as 5.3 nM.

On to `COc1cccc([C@@H](Oc2ccc3c(cnn3-c3ccc(F)cc3)c2)[C@H](C)NC(=O)c2ccc(C(F)(F)F)cc2)c1` [Example 83, N-((1R,2S)-1-(1-(4-fluorophenyl)-1H-indazol-5-yloxy)-1-(3-methoxyphenyl)propan-2-yl)-4-(trifluoromethyl)benzamide], for which the half-inhibitory concentration (IC50) was found to be 5.8 nM. In the case of `COc1cccc([C@@H](Oc2ccc3c(cnn3-c3ccc(F)cc3)c2)[C@H](C)NC(=O)c2ncco2)c1` [Example 84, N-((1R,2S)-1-(1-(4-fluorophenyl)-1H-indazol-5-yloxy)-1-(3-methoxyphenyl)propan-2-yl)oxazole-2-carboxamide], the IC50 is 2.3 nM.

In the case of `COc1cccc([C@@H](Oc2ccc3c(cnn3-c3ccc(F)cc3)c2)[C@H](C)NC(=O)c2cocn2)c1` [Example 85, N-((1R,2S)-1-(1-(4-fluorophenyl)-1H-indazol-5-yloxy)-1-(3-methoxyphenyl)propan-2-yl)oxazole-4-carboxamide], the IC50 came to 2.1 nM. Take `COc1cccc([C@@H](Oc2ccc3c(cnn3-c3ccc(F)cc3)c2)[C@H](C)NC(=O)c2ccco2)c1` [Example 86, N-((1R,2S)-1-(1-(4-fluorophenyl)-1H-indazol-5-yloxy)-1-(3-methoxyphenyl)propan-2-yl)furan-2-carboxamide]: the half-inhibitory concentration (IC50) amounted to 3.8 nM. With `COc1cccc([C@@H](Oc2ccc3c(cnn3-c3ccc(F)cc3)c2)[C@H](C)NC(=O)c2ccncn2)c1` [Example 88, N-((1R,2S)-1-(1-(4-fluorophenyl)-1H-indazol-5-yloxy)-1-(3-methoxyphenyl)propan-2-yl)pyrimidine-4-carboxamide], the concentration for half-maximal inhibition (IC50) was determined as 3.2 nM. Turning to `COc1cccc([C@@H](Oc2ccc3c(cnn3-c3ccc(F)cc3)c2)[C@H](C)NC(=O)c2ccccn2)c1` [Example 89, N-((1R,2S)-1-(1-(4-fluorophenyl)-1H-indazol-5-yloxy)-1-(3-methoxyphenyl)propan-2-yl)picolinamide], the IC50 amounted to 4.4 nM. As to `CCC[C@H](NC(=O)CO)[C@H](Oc1ccc2c(cnn2-c2ccc(F)cc2)c1)c1ccccc1` [Example 91, N-((1R,2S)-1-(1-(4-fluorophenyl)-1H-indazol-5-yloxy)-1-phenylpentan-2-yl)-2-hydroxyacetamide], the 50% inhibitory concentration (IC50) amounted to 5.2 nM. With `CCC[C@H](NC(=O)C(C)(C)C)[C@H](Oc1ccc2c(cnn2-c2ccc(F)cc2)c1)c1ccccc1` [Example 92, N-((1R,2S)-1-(1-(4-fluorophenyl)-1H-indazol-5-yloxy)-1-phenylpentan-2-yl)pivalamide], the concentration for half-maximal inhibition (IC50) came out at 3.8 nM.

In the case of `CCC[C@H](NC(=O)CO)[C@H](Oc1ccc2c(cnn2-c2ccc(F)cc2)c1)c1cccc(OC)c1` [Example 93, N-((1R,2S)-1-(1-(4-fluorophenyl)-1H-indazol-5-yloxy)-1-(3-methoxyphenyl)pentan-2-yl)-2-hydroxyacetamide], the IC50 was 3.7 nM. As for `CCC[C@H](NC(=O)C(C)(C)C)[C@H](Oc1ccc2c(cnn2-c2ccc(F)cc2)c1)c1cccc(OC)c1` [Example 94, N-((1R,2S)-1-(1-(4-fluorophenyl)-1H-indazol-5-yloxy)-1-(3-methoxyphenyl)pentan-2-yl)pivalamide], the 50% inhibitory concentration (IC50) stood at 3.1 nM. `CC[C@H](NC(=O)CO)[C@H](Oc1ccc2c(cnn2-c2ccc(F)cc2)c1)c1ccccc1` [Example 95, N-((1R,2S)-1-(1-(4-fluorophenyl)-1H-indazol-5-yloxy)-1-phenylbutan-2-yl)-2-hydroxyacetamide]: the 50% inhibitory concentration (IC50) turned out to be 3.4 nM. With `CC[C@H](NC(=O)C(C)(C)C)[C@H](Oc1ccc2c(cnn2-c2ccc(F)cc2)c1)c1ccccc1` [Example 96, N-((1R,2S)-1-(1-(4-fluorophenyl)-1H-indazol-5-yloxy)-1-phenylbutan-2-yl)pivalamide], the IC50 was 3.5 nM. For `CC[C@H](NC(=O)CO)[C@H](Oc1ccc2c(cnn2-c2ccc(F)cc2)c1)c1cccc(OC)c1` [Example 97, N-((1R,2S)-1-(1-(4-fluorophenyl)-1H-indazol-5-yloxy)-1-(3-methoxyphenyl)butan-2-yl)-2-hydroxyacetamide], the 50% inhibitory concentration (IC50) is 3.3 nM. Consider `C[C@H](NC(=O)C(F)(F)F)[C@H](Sc1ccc2c(cnn2-c2ccc(F)cc2)c1)c1ccccc1` [Example 103, 2,2,2-trifluoro-N-((1R,2S)-1-(1-(4-fluorophenyl)-1H-indazol-5-ylthio)-1-phenylpropan-2-yl)acetamide], for which the IC50 came to 2.6 nM. Take `C[C@H](NC(=O)NC1CCCC1)[C@H](Oc1ccc2c(cnn2-c2ccc(F)cc2)c1)c1ccccc1` [Example 104]: the IC50 came out at 3.6 nM. As to `C[C@H](NC(=O)NCc1ccco1)[C@H](Oc1ccc2c(cnn2-c2ccc(F)cc2)c1)c1ccccc1` [Example 105, 1-{(1S,2R)-2-{[1-(4-Fluorophenyl)-1H-indazole-5-yl]oxy}-1-methyl-2-phenylethyl}-3-(2-furylmethyl)urea], the IC50 is 3.2 nM. As for `CCOC(=O)CNC(=O)N[C@@H](C)[C@H](Oc1ccc2c(cnn2-c2ccc(F)cc2)c1)c1ccccc1` [Example 106, Ethyl N-{[(1S,2R)-2-{[1-(4-fluorophenyl)-1H-indazole-5-yl]oxy}-1-methyl-2-phenylethyl]carbamoyl}glycinate], the IC50 came to 3.7 nM.

With `CC(C)[C@@H](C)NC(=O)N[C@@H](C)[C@H](Oc1ccc2c(cnn2-c2ccc(F)cc2)c1)c1ccccc1` [Example 107], the IC50 is 4 nM.

For the compound `C[C@H](NC(=S)NCc1ccco1)[C@H](Oc1ccc2c(cnn2-c2ccc(F)cc2)c1)c1ccccc1` [Example 108, 1-{(1S,2R)-2-{[1-(4-Fluorophenyl)-1H-indazole-5-yl]oxy}-1-methyl-2-phenylethyl}-3-(2-furylmethyl)thiourea], the half-inhibitory concentration (IC50) turned out to be 4.9 nM. On to `COCC(=O)N[C@@H](CC(C)C)[C@H](Oc1ccc2c(cnn2-c2ccc(F)cc2)c1)c1cccc(F)c1` [Example 109, N-{(1S)-1-[(R)-(3-Fluorophenyl)-{[1-(4-fluorophenyl)-1H-indazole-5-yl]oxy}methyl]-3-methyl-butyl}-2-methoxyacetamide], for which the IC50 came out at 23 nM. Turning to `CC(C)C[C@H](NC(=O)C(F)(F)F)[C@H](Oc1ccc2c(cnn2-c2ccc(F)cc2)c1)c1cccc(F)c1` [Example 110, 2,2,2-Trifluoro-N-{(1S)-1-[(R)-(3-Fluorophenyl)-{[1-(4-fluorophenyl)-1H-indazole-5-yl]oxy}methyl}-3-methylbutyl}-acetamide], the IC50 stood at 29 nM. For the compound `COCC(=O)N[C@@H](COC)[C@H](Oc1ccc2c(cnn2-c2ccc(F)cc2)c1)c1cccc(F)c1` [Example 111, N-[(1)-(2R)-(3-Fluorophenyl)-2-{[1-(4-fluorophenyl)-1H-indazole-5-yl]oxy}-1-(methoxymethyl)ethyl]-2-methoxyacetamide], the IC50 came out at 15 nM.

Turning to `COC[C@H](NC(=O)c1ccco1)[C@H](Oc1ccc2c(cnn2-c2ccc(F)cc2)c1)c1cccc(F)c1` [Example 112, N-[(1S)-(2R)-(3-Fluorophenyl)-2-{[1-(4-fluorophenyl)-1H-indazol-5-yl]oxy}-1-(methoxymethyl)ethyl]furan-2-carboxamide], the IC50 was found to be 21 nM. As for `C[C@H](NC(=O)c1ccco1)[C@H](Oc1ccc2c(cnn2-c2cccnc2)c1)c1ccccc1` [Example 114, N-[(1S,2R)-1-Methyl-2-phenyl-2-{[1-(3-pyridyl)-1H-indazol-5-yl]oxy}ethyl]furan-2-carboxamide], the figure is 3.2 nM; as for `C[C@H](NC(=O)c1ccco1)[C@H](Oc1ccc2c(cnn2-c2ccncc2)c1)c1ccccc1` [Example 115, N-[(1S,2R)-1-Methyl-2-phenyl-2-{[1-(4-pyridyl)-1H-indazol-5-yl]oxy}ethyl]furan-2-carboxamide], 3.8 nM; as for `COC(=O)c1ccc(-n2ncc3cc(O[C@H](c4ccccc4)[C@H](C)NC(=O)c4ccco4)ccc32)cc1` [Example 116, Methyl 4-(5-{(1R,2S)-2-[(2-furylcarbonyl)amino]-1-phenylpropoxy}-1H-indazol-1-yl)benzoate], 7.7 nM. On to `COCC(=O)N[C@@H](C)[C@H](Oc1ccc2c(cnn2-c2ccccn2)c1)c1ccccc1` [Example 118, 2-Methoxy-N-[1-methyl-2-phenyl-2-(1-pyridin-2-yl-1H-indazol-5-yloxy)-ethyl]acetamide], for which the 50% inhibitory concentration (IC50) was found to be 2.9 nM. On to `C[C@H](NC(=O)C(F)(F)F)[C@H](Oc1ccc2c(cnn2-c2ccc(Cl)nn2)c1)c1ccccc1` [Example 119, N-{2-[1-(6-Chloro-pyridazin-3-yl)-1H-indazol-5-yloxy]-1-methyl-2-phenyl-ethyl}-2,2,2-trifluoro-acetamide], for which the IC50 turned out to be 3.1 nM.

Source of the values: patent US8143290B2, “Chemical compounds 572” (AstraZeneca AB, priority 2006, dated 2012).
